# Where “and” joins values, the source holds several entries; their conditions need not be identical. Equal entries are not always repeated.
# Key:
# [1] = target: T1, BrlR (Pseudomonas aeruginosa, UniProt Q9HUT5); assay: Surface plasmon resonance (SPR) analysis; format: binding
# T1 construct: His6-SUMO (N, cleaved yes); made in house; host or cells: E. coli BL21 DE3
# Experimental: The binding affinity of diverse toxic compounds for BrlR were investigated by SPR using a BIAcore-T200 apparatus (GE Healthcare). The ligand, BrlR (20 μM in 10 mM sodium acetate, pH 4.5), was immobilized on an activated CM5 sensor chip by amine coupling (BIAcore) with 4400 response units (RU), and the unreacted sites were blocked with 1.0 M ethanolamine–HCl (pH 8.5). Steady-state binding analysis was performed with injections of different molecules at different concentrations over the immobilized BrlR surface at a flow rate of 20 μL min^−1 at 25 °C. Association was measured for 180 s, followed by 120 s of dissociation in running buffer (20 mM Hepes pH 7.5, 150 mM NaCl). The sensorgrams for specific interactions were obtained by subtracting the reference unimmobilized flow cell response from that of the sample. Since BrlR only has one binding site for pyocyanin or other toxic compounds (Fig. 5a–f), the kinetic analysis of the sensorgrams from analyte interaction with the immobilized BrlR was performed by fitting the binding curves to a 1:1 binding model. To determine the steady state KD values, equilibrium responses were plotted against analyte concentrations, and the resulting curves were fitted to the steady state model in the BIAevaluation software package, version 3.0 (GE Healthcare).
# [2] = target: T2, BrlR-DNA binding (PbrlR) (Pseudomonas aeruginosa, UniProt Q9HUT5); assay: EMSA, wild-type BrlR with PbrlR DNA; format: biochemical
# T2 construct: His6-SUMO (N, cleaved yes); made in house; host or cells: E. coli BL21 DE3
# Experimental: (§1) A 6-carboxy-fluorescein (FAM)-labeled 36-bp brlR promoter DNA (PbrlR) or 80-bp mexA/mexE promoter DNA (PmexA/PmexE) probes (~0.375 pmol), BrlR protein and varying amounts of inducers were incubated in binding buffer (10 mM Tris HCl [pH 7.4], 50 mM KCl, 1 mM DTT, […] and 5 ng/mL poly [dI-dC]) for 60 min at 25 °C. Finally, glycerol was added to a concentration of 6.5%. The samples were subjected to a 5% polyacrylamide gel electrophoresis and run in 0.5 × Tris-borate-EDTA buffer at 80 V for 1 h at room temperature. Imaging and data analyses were performed using a Typhoon Scanner (GE Healthcare) and Imagequant software. The probes used are listed in Supplementary Table 1.
# [3] = target: T3, BrlR Y183A DNA binding (Pseudomonas aeruginosa, UniProt Q9HUT5, Y183A); assay: EMSA, BrlR Y183A with PbrlR; format: biochemical
# T3 construct: His6-SUMO (N, cleaved yes); made in house; host or cells: E. coli BL21 DE3
# Experimental: (§2) It is unlikely that the larger drug molecules located in the canonical binding pocket can slide into the pyocyanin binding site and promote BrlR-DNA binding, as reflected by the EMSA results for tobramycin (Fig. 6a). To further verify the amino acid residues contributing to pyocyanin binding, many BrlR mutants were constructed. Whereas mutant E247A was insoluble, mutant F253R was not expressed, and mutant C173W was unstable. The binding affinity of Y183A and Y249A for pyocyanin were evaluated by using EMSA with a 36-bp PbrlR.
# as §1
# [4] = target: T4, BrlR Y249A DNA binding (Pseudomonas aeruginosa, UniProt Q9HUT5, Y249A); assay: EMSA, BrlR Y249A with PbrlR; format: biochemical
# T4 construct: His6-SUMO (N, cleaved yes); made in house; host or cells: E. coli BL21 DE3
# Experimental: as §2, §1
# [5] = target: T5, BrlR binding to PmexA and PmexE (Pseudomonas aeruginosa, UniProt Q9HUT5); assay: EMSA, BrlR with PmexA and PmexE; format: biochemical; conditions: increasing concentrations of pyocyanin
# T5 construct: His6-SUMO (N, cleaved yes); made in house; host or cells: E. coli BL21 DE3
# Experimental: as §1
# [6] = test system: brlR transcription; assay: qRT-PCR of brlR transcript; format: cell-based, P. aeruginosa PAO1
# Experimental: PAO1 WT strains were grown under different conditions. For c-di-GMP effects, overexpression of PA4843 in PAO1 (PAO1/pHERD20T-PA4843) relative to WT cells (PAO1/ pHERD20T) was determined. When P. aeruginosa strains entered mid-log phase, arabinose was added to induce gene expression. To test pyocyanin’s effect, a P. aeruginosa PAO1 WT strain cells with high pyocyanin production was determined relative to a ΔphzA1-G1/phzA2-G2 strain not producing phenazine and a ΔphzMSH strain not producing pyocyanin.
# Total RNA was extracted using a MiniBEST Universal RNA Extraction Kit (TaKaRa) and cDNA synthesis was performed using a PrimeScript RT reagent Kit (TaKaRa). Primers for RT-PCR listed in Supplementary Table 1 were designed using the program PrimerExpress (Applied Biosystems). The RT-PCR reactions were performed on a CFX96 Real-Time PCR Detection System (Bio-Rad) using SYBR Premix Ex Taq™ (TaKaRa). Expression of the target genes was normalized to the expression of 16 S RNA. The relative transcript abundance was calculated according to the 2^−ΔΔCt method. Five biological replicates were performed per sample. The data were analyzed with a one-tailed t-test (***P ≤ 0.001).
# [7] = test system: ΔbrlR cells; assay: Planktonic antibiotic susceptibility testing, ΔbrlR; format: cell-based, Pseudomonas aeruginosa; conditions: 50 μg/ml tobramycin 1 h, 0.2 mM pyocyanin
# Experimental: To determine the role of pyocyanin in antimicrobial susceptibility, P. aeruginosa strains (Supplementary Table 2) were grown at 37 °C in 20-fold diluted LB medium supplemented with or without 0.2 mM pyocyanin, which was purified from stationary phase cultures of PAO1. Tobramycin was added to the mid-log phase (OD600 = 0.8) cells suspension to a final concentration of 50 μg/ml; after 1 h, the broth was serially diluted and spread-printed onto LB agar (medium containing 300 μg/ml carbenicillin was used for the cells harboring plasmid) to determine the cell viability via CFU counts. The cell suspensions without tobramycin were set as controls. Susceptibility is expressed as a logarithmic reduction in CFU amount. The data were analyzed with a one-tailed t-test (***P ≤ 0.001).
# [8] = target: Per-Arnt-Sim (PAS) domain of PA14_07500 (RmcA); parameters: method as in earlier work; conditions: intrinsic fluorescence quenching method; ref 4 (Okegbe et al., 2017) of response letter; cited from earlier work
# [9] = test system: brlR; parameters: method as in PMID 16879411; conditions: addition of pyocyanin to P. aeruginosa PA14 strain; cited from earlier work
# T2 sequence (Q9HUT5 whole entry): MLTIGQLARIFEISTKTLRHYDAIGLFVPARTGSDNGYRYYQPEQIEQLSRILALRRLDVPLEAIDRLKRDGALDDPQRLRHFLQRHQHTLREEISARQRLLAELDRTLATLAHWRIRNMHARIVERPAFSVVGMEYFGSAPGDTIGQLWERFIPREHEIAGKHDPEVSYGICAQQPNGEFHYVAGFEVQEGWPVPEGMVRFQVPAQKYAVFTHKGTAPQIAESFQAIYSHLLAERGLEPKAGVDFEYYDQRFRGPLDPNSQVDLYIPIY
# T1 sequence (Q9HUT5 whole entry): as above
# T3 sequence (Q9HUT5 whole entry Y183A): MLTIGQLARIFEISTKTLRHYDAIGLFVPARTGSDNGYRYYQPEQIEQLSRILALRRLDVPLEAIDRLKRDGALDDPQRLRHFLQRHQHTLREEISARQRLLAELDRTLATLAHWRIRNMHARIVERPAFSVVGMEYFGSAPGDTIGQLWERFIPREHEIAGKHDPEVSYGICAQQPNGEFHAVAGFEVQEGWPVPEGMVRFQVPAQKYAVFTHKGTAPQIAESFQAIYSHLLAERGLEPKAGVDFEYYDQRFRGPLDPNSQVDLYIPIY
# T4 sequence (Q9HUT5 whole entry Y249A): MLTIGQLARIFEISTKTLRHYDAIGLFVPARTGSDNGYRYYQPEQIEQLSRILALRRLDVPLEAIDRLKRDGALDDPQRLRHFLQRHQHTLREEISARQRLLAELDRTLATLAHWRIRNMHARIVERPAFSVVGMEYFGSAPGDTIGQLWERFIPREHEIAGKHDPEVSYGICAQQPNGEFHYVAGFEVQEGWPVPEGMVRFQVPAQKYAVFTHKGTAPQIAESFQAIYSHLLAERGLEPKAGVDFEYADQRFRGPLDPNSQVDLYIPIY
# T5 sequence (Q9HUT5 whole entry): as the sequence (Q9HUT5 whole entry) above
smiles,measurement,setting,value
"Cn1c2cccc(=O)c-2nc2ccccc21 [pyocyanin, 5-N-methyl-1-hydroxyphenazine]",binding affinity relative to tobramycin,[1]; SPR KD 4.5 μM vs 0.64 mM,~ 140 fold
same,Kd,"[1]; SPR, immobilized BrlR, steady state, 25 °C",4.52 µM and 4.5 µM
same,effect of c-di-GMP and pyocyanin together on BrlR-DNA binding,"[2]; PbrlR, c-di-GMP, pyocyanin, and both",cooperatively enhance
same,DNA bound in the presence vs absence of pyocyanin,"[2]; wild-type BrlR, PbrlR",5.47 fold
same,effect on BrlR-PbrlR DNA binding (in words),"[2]; wild-type BrlR, increasing concentrations of compound",significant increase
same,DNA bound in the presence vs absence of pyocyanin,[3],3.23 fold
same,DNA bound in the presence vs absence of pyocyanin,[4],4.15 fold
same,effect on BrlR binding to PmexA and PmexE,[5],enhanced
same,"brlR expression level, PAO1 vs ΔphzA1-G1/phzA2-G2 strain",[6]; PAO1 at high pyocyanin production vs strain not producing phenazine,~ 4.0 fold
same,"brlR expression level, PAO1 vs ΔphzMSH strain",[6]; PAO1 at high pyocyanin production vs strain with no pyocyanin production,~ 5.3 fold
same,viability of tobramycin-treated cells with vs without pyocyanin,[7],no significant difference
same,Kd,[8],3000 nM
same,up-regulation of brlR,[9],2.3 fold
